Five compounds from ChEMBL document CHEMBL4330066, “Carbohydrate-naphthalene diimide conjugates as potential antiparasitic drugs: Synthesis, evaluation and structure-activity studies” (Eur J Med Chem, 2019) can be followed below.

The test system of series [1] is Trypanosoma brucei. Briefly: Trypanocidal activity against Trypanosoma brucei Lister 427, antigenic type MiTat 1.2, clone 221a after 72 hrs by alamarBlue assay. The format is functional, organism-based. To be noted: Lister 427, 72 h. (In general: Alamar Blue is a resazurin reagent that responds to reducing activity.)
A short description of series [2]: Selectivity index, ratio of IC50 for human MRC5 cells to IC50 for Trypanosoma brucei Lister 427, antigenic type MiTat 1.2, clone 221a. The format is toxicity. The settings on record: MRC5 cells versus Trypanosoma brucei Lister 427, read-out: Ratio IC50.
Series [3] deals with Quadruplex DNA. Briefly: Binding affinity to 22AG telomeric G-quadruplex DNA (unknown origin) assessed as association constant by fluorescence titration assay. The format is nucleic-acid assay.
The nature of series [4]: Drug localization in nucleus of Trypanosoma brucei at 5 x 10^-6 M after 4 hrs by DAPI staining-based fluorescence confocal microscopy method. Format: ADME, subcellular. To be noted: 5 µM.
The nature of series [5]: Selectivity index, ratio of TC50 for human THP1 cells to IC50 for Leishmania major MHOM/IL/80/Friedlin amastigotes. To be noted: THP1 cells versus Leishmania major amastigotes, read-out: Selectivity Index. The format is toxicity.
Series [6] has as its system Leishmania major. Briefly: Leishmaniacidal activity against Leishmania major MHOM/IL/80/Friedlin promastigotes after 72 hrs by MTT assay. The format is functional, organism-based. Background: Formazan colour is commonly taken as a measure of viable cells.
In series [7] the test system is Trypanosoma brucei. Briefly: Binding affinity to Trypanosoma brucei EBR1 G-quadruplex DNA assessed as association constant by fluorescence titration assay.
Series [8] has as its system Leishmania major. Briefly: Leishmaniacidal activity against Leishmania major MHOM/IL/80/Friedlin amastigotes infected in human THP1 cells after 72 hrs by luciferase luminescence assay. Format: functional, organism-based. To be noted: THP-1, 72 h.
The test system of series [9] is Trypanosoma brucei. In words: Stabilization of Trypanosoma brucei EBR1 G-quadruplex DNA up to 30 x 10^-6 M by CD titration assay.
Series [10] can be described thus: Cytotoxicity against human THP1 cells. Format: cell-based. The settings on record: THP-1 cells, read-out: TC50 (the source's name).
Series [11] deals with Trypanosoma brucei. In words: Stabilization of 5'-FAM /3'-Tamra labelled Trypanosoma brucei F21T G-quadruplex DNA in presence of 3 x […] M dsDNA competitior by FRET melting assay.
For series [12], the system named is Trypanosoma brucei. In words: Stabilization of 5'-FAM /3'-Tamra labelled Trypanosoma brucei F21T G-quadruplex DNA in presence of 1 x 10^-5 M dsDNA competitior by FRET melting assay.
A further series concerns MRC5. Briefly: Cytotoxicity against human MRC5 cells assessed as reduction in cell viability after 48 hrs by MTT assay. The format is cell-based. To be noted: MRC5, 48 h.
Series [13] relates to Trypanosoma brucei. In words: Stabilization of 5'-FAM /3'-Tamra labelled Trypanosoma brucei EBR1-FT G-quadruplex DNA in presence of 1 x 10^-5 M dsDNA competitior by FRET melting assay relative to control.
Series [14] concerns Trypanosoma brucei. Briefly: Stabilization of 5'-FAM /3'-Tamra labelled Trypanosoma brucei F21T G-quadruplex DNA at 2 x 10^-6 M by FRET melting assay.
The test system of series [15] is Trypanosoma brucei. In words: Stabilization of 5'-FAM /3'-Tamra labelled Trypanosoma brucei EBR1-FT G-quadruplex DNA at 2 x 10^-6 M by FRET melting assay.
The test system of series [16] is Quadruplex DNA. Briefly: Stabilization of 22AG telomeric G-quadruplex DNA (unknown origin) assessed as red shift at 8 uM by fluorescence absorption emisssion spectroscopy method. The format is nucleic-acid assay.
A short description of series [17]: Drug localization in kinetoplast of Trypanosoma brucei at 5 x 10^-6 M after 4 hrs by DAPI staining-based fluorescence confocal microscopy method. The settings on record: 5 µM. The format is ADME, subcellular.
In series [18] the test system is Trypanosoma brucei. Briefly: Stabilization of 5'-FAM /3'-Tamra labelled Trypanosoma brucei EBR1-FT G-quadruplex DNA assessed as impeding of completing melting of DNA at 2 x 10^-6 M by FRET melting assay.
Series [19] has as its system Trypanosoma brucei. In words: Stabilization of 5'-FAM /3'-Tamra labelled Trypanosoma brucei F21T G-quadruplex DNA assessed as change in melting temperature at 5 x 10^-7 M by FRET melting assay.
The subject of the next series is Erythrocyte. Briefly: Hemolytic activity in mouse RBC after 1 hr. The format is ADME, cell-based.
Series [20] relates to Quadruplex DNA. In words: Stabilization of 22AG telomeric G-quadruplex DNA (unknown origin) assessed as reduction in emission at 8 uM by fluorescence absorption emisssion spectroscopy method relative to control. Format: nucleic-acid assay. Details: scale not given: the % may be the effect or the level left.
The test system of series [21] is Trypanosoma brucei. Briefly: Stabilization of 5'-FAM /3'-Tamra labelled Trypanosoma brucei EBR1-FT G-quadruplex DNA assessed as change in melting temperature at 5 x 10^-7 M by FRET melting assay.
For series [22], the system named is Trypanosoma brucei. Briefly: Stabilization of 5'-FAM /3'-Tamra labelled Trypanosoma brucei EBR1-FT G-quadruplex DNA assessed as change in melting temperature at 0.5 x 10^-6 M by FRET melting assay.
Series [23] in a line: Drug uptake in Trypanosoma brucei assessed as reduction in intracellular fluorescence at 5 x 10^-6 M at 4 degreeC incubated for 90 mins by flow cytometric analysis relative to drug uptake at 37 degC. The format is ADME, cell-based. To be noted: 1.5 h, 5 µM. Background: A flow cytometer gives signals particle by particle.
Series [24] relates to Quadruplex DNA. In words: Stabilization of 22AG telomeric G-quadruplex DNA (unknown origin) assessed as reduction in emission at 8 uM by fluorescence absorption emisssion spectroscopy method. The format is nucleic-acid assay. Details: scale not given: the % may be the effect or the level left.
The nature of series [25]: Drug uptake in Trypanosoma brucei assessed as reduction in intracellular fluorescence at 5 x 10^-6 M at 4 to 37 degreeC by flow cytometric analysis. Format: ADME, cell-based. The settings on record: 5 µM, TDE = time-dependent effect.
The nature of series [26]: Drug uptake in Trypanosoma brucei at 5 x 10^-6 M at 37 degC incubated for 90 mins by flow cytometric analysis. Format: ADME. To be noted: 1.5 h, 5 µM.

Each structure is given as a SMILES string. The source made the active and inactive calls. No cut-off for these calls is given here.

In the case of `CN(C)CCCN1C(=O)c2ccc3c4c(c(NCCCn5cc(COCCOCCOCCO[C@@H]6O[C@H](CO)[C@@H](O)[C@H](O)[C@H]6O)nn5)cc(c24)C1=O)C(=O)N(CCCN(C)C)C3=O`, the IC50 with Trypanosoma brucei [1] came to 0.44 µM; in the series on Leishmania major [6] it was 0.48 µM; in the series with Leishmania major [8], 0.48 µM; with MRC5, 0.73 µM. The selectivity ratio in [2] was found to be 1.6; in series [5] it was 3.9. For the same compound, the Ka with Quadruplex DNA [3] is 4.8 ×10⁵ /M; in the series on Trypanosoma brucei [7], 6.9 ×10⁵ /M. The Drug uptake entry in series [4] and in series [17] was “Active” each time. In addition, the outcome in the series on Trypanosoma brucei [9], in the series on Trypanosoma brucei [12], with Trypanosoma brucei [13], with Trypanosoma brucei [14], with Trypanosoma brucei [15] and in the series with Quadruplex DNA [16] was Active. In addition, in series [10], the CC50 is 1.86 µM. For the same compound, in the series on Trypanosoma brucei [11], the result was inactive.

In the case of `CN(C)CCCc1cc2c3c(c(NCCCn4cc(CCO[C@@H]5O[C@H](CO)[C@@H](O)[C@H](O)[C@H]5O)nn4)cc4c3c1C(=O)N(CCCN(C)C)C4=O)C(=O)N(CCCN(C)C)C2=O`, the half-inhibitory concentration (IC50) with Trypanosoma brucei [1] worked out at 0.24 µM; in the series on Leishmania major [6], 9.77 µM; with MRC5 it was 7.25 µM. The selectivity ratio in [2] turned out to be 30.2. Moreover, the results for the Ka with Quadruplex DNA [3] and in the series on Trypanosoma brucei [7] were 4.4 ×10⁶ /M and 1 ×10⁷ /M, respectively. The Drug uptake result in [4] and in [17] was “Active” throughout. Besides, the outcome in the series on Trypanosoma brucei [18], in the series on Trypanosoma brucei [9] and with Trypanosoma brucei [12] was Active. The ΔTm in the series with Trypanosoma brucei [19] was 22.1 °C; in the series with Trypanosoma brucei [21], 11.5 °C; with Trypanosoma brucei [22], 24 °C. For the same compound, the Activity entry in the series on Erythrocyte is “Non-Toxic”; in the series with Quadruplex DNA [20], 40%. The result in the series on Trypanosoma brucei [11], with Trypanosoma brucei [13] and with Trypanosoma brucei [14] was inactive.

In the case of `CN(C)CCCN1C(=O)c2ccc3c4c(c(NCCCn5cc(CCO[C@@H]6O[C@H](CO)[C@@H](O)[C@H](O)[C@H]6O)nn5)cc(c24)C1=O)C(=O)N(CCCN(C)C)C3=O`, the IC50 worked out at 0.06 µM with Trypanosoma brucei [1], 0.07 µM with Leishmania major [6], 0.72 µM in the series with Leishmania major [8] and 0.45 µM in the series with MRC5. For the same compound, the results for the selectivity ratio in series [2] and in series [5] were 7.5 and 3, respectively. Moreover, the Ka turned out to be 9.2 ×10⁵ /M with Quadruplex DNA [3] and 1.2 ×10⁶ /M in the series on Trypanosoma brucei [7]. The Drug uptake entry in series [4] is on record as “Active”; in series [23] it was 36%; in series [25], “Tde”; in [26], “Active”; in series [17] it was “Active”. In addition, the Activity was 10% with Quadruplex DNA [24], “Non-Toxic” in the series on Erythrocyte and 10 nm in the series with Quadruplex DNA [16]. The outcome in the series with Trypanosoma brucei [9], in the series with Trypanosoma brucei [12], with Trypanosoma brucei [13], in the series on Trypanosoma brucei [14] and in the series with Trypanosoma brucei [15] was Active. For the same compound, the CC50 in series [10] was found to be 2.18 µM. Moreover, the outcome with Trypanosoma brucei [11] was inactive.

Turning to `CN(C)CCCN1C(=O)c2ccc3c4c(c(NCCCn5cc(COCCOCCOCCO[C@@H]6O[C@H](CO)[C@@H](O[C@@H]7O[C@H](CO)[C@H](O)[C@H](O)[C@H]7O)[C@H](O)[C@H]6O)nn5)cc(c24)C1=O)C(=O)N(CCCN(C)C)C3=O`, the IC50 in the series on Trypanosoma brucei [1] amounted to 0.04 µM; in the series on Leishmania major [6], 0.17 µM; in the series on Leishmania major [8], 0.53 µM; in the series on MRC5, 0.24 µM. For the same compound, the selectivity ratio is 6 in series [2] and 10.8 in series [5]. Besides, the Ka in the series on Quadruplex DNA [3] amounted to 8.4 ×10⁵ /M; with Trypanosoma brucei [7], 1.1 ×10⁶ /M. For the same compound, the Drug uptake result in series [4] and in [17] was “Active” in each case. The result with Trypanosoma brucei [9], with Trypanosoma brucei [12], in the series with Trypanosoma brucei [13], in the series on Trypanosoma brucei [14], in the series with Trypanosoma brucei [15] and in the series with Quadruplex DNA [16] was Active. Also, in [10], the CC50 was found to be 5.71 µM. In the series on Trypanosoma brucei [11], the result was inactive.

For `CN(C)CCCN1C(=O)c2ccc3c4c(c(NCCCn5cc(CCO[C@@H]6O[C@H](CO)[C@@H](O[C@@H]7O[C@H](CO)[C@H](O)[C@H](O)[C@H]7O)[C@H](O)[C@H]6O)nn5)cc(c24)C1=O)C(=O)N(CCCN(C)C)C3=O`, the IC50 turned out to be 0.33 µM in the series on Trypanosoma brucei [1], 1.93 µM in the series with Leishmania major [6], 4.71 µM with Leishmania major [8] and 1.17 µM with MRC5. Further, the selectivity ratio in [2] was 3.5; in [5], over 2.1. In addition, the CC50 in series [10] is over 10 µM.

One may read the IC50 as the concentration needed to halve the response being measured. As a reminder, the ΔTm is the shift of the melting midpoint relative to a reference.
